Test results: ChEMBL document CHEMBL2029240 (ACS Med Chem Lett, 2011)

Experiments:
[1] = target: C-C chemokine receptor type 2 (Homo sapiens, UniProt P41597)
Description: Displacement of [125I]MCP1 from human CCR2 in PBMC after 30 mins by gamma counting

hERG (KCNH2) = hERG (KCNH2) (Homo sapiens, UniProt Q12809); experiment: Inhibition of human ERG at 10 uM by patch clamp assay
[2] = target: Voltage-gated inwardly rectifying potassium channel KCNH2 (Homo sapiens, UniProt Q12809); experiment: Displacement of [3H]dofetilide from human ERG
Voltage-gated inwardly rectifying potassium channel KCNH2, sequence (Q12809 whole entry): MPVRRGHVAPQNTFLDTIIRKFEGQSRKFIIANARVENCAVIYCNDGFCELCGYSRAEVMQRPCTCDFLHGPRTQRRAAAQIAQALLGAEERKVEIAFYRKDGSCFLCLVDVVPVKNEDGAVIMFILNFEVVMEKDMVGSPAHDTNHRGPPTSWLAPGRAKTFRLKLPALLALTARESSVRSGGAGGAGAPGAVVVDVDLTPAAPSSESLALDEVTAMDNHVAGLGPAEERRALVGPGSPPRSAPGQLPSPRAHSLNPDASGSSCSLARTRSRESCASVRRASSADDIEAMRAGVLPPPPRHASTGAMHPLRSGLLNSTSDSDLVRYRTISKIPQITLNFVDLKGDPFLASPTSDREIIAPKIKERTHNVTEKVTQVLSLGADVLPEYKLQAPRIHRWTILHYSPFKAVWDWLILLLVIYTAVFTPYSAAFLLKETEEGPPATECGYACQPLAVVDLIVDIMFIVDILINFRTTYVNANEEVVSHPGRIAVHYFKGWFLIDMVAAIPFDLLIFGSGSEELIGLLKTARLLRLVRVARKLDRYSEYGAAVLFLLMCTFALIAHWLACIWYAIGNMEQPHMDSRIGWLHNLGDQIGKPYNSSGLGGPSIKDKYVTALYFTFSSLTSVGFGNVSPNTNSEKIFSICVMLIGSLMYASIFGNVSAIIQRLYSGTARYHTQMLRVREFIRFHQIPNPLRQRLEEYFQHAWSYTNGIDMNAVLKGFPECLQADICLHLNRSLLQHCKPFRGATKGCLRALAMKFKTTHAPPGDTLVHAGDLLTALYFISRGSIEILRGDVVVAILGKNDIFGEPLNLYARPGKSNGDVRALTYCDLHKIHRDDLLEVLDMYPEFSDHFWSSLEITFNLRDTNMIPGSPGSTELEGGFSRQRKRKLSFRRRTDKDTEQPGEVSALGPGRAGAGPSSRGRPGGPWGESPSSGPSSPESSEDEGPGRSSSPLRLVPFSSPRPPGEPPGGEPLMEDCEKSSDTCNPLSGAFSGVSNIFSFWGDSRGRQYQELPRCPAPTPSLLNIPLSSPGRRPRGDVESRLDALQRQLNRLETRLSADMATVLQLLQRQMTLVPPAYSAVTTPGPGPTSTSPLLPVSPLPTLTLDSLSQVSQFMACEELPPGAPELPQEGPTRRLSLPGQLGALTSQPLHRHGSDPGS

C-C chemokine receptor type 2, sequence (P41597 whole entry): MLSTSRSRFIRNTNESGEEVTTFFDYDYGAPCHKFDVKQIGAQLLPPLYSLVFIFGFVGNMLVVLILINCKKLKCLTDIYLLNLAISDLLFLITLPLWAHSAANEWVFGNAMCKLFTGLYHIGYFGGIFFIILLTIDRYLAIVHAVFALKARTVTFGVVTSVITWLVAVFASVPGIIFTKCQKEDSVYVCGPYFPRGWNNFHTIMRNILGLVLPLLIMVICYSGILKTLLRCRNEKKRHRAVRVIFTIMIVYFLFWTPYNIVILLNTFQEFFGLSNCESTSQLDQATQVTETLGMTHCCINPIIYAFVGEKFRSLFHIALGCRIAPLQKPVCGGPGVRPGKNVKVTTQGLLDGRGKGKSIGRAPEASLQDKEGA
hERG (KCNH2), sequence (Q12809 whole entry): as the sequence (Q12809 whole entry) above

SMILES | IC50 [1] [nM] | inhibition at 10 µM (hERG (KCNH2)) [%] | IC50 [2] [µM]
COc1ccc([C@]2(O)CC[C@H](N[C@H]3CCN(C(=O)CNC(=O)c4cccc(C(F)(F)F)c4)C3)CC2)cn1 | 95 |  | 
O=C(NCC(=O)N1CC[C@H](N[C@H]2CC[C@@](O)(c3ccccn3)CC2)C1)c1cccc(C(F)(F)F)c1 |  | 34 | > 30
O=C(NCC(=O)N1CC[C@H](N[C@H]2CC[C@@](O)(c3nccs3)CC2)C1)c1cccc(C(F)(F)F)c1 | 18 |  | 
Cc1ccc([C@]2(O)CC[C@H](N[C@H]3CCN(C(=O)CNC(=O)c4cccc(C(F)(F)F)c4)C3)CC2)nc1 |  | 71 | 24
O=C(NCC(=O)N1CC[C@H](N[C@H]2CC[C@@](O)(c3ccc(-c4cccnc4)cn3)CC2)C1)c1cccc(C(F)(F)F)c1 |  |  | 30

Further lines, with some results ahead:

IC50 [1] [nM] | SMILES | inhibition at 10 µM (hERG (KCNH2)) [%] | IC50 [2] [µM]
860 | O=C(NCC(=O)N1CC[C@@H](N[C@H]2CC[C@@H](c3ccccc3)CC2)C1)c1cccc(C(F)(F)F)c1 |  | 
35 | O=C(NCC(=O)N1CC[C@H](N[C@H]2CC[C@@H](c3ccccc3)CC2)C1)c1cccc(C(F)(F)F)c1 |  | 
84 | CN([C@H]1CCN(C(=O)CNC(=O)c2cccc(C(F)(F)F)c2)C1)[C@H]1CC[C@@H](c2ccccc2)CC1 |  | 
65 | O=C(NCC(=O)N1CC[C@H](N[C@H]2CC[C@@](O)(c3ccccc3)CC2)C1)c1cccc(C(F)(F)F)c1 |  | 
